ChEMBL document CHEMBL1148209, “Isolation and structure determination of cryptophycins 38, 326, and 327 from the terrestrial cyanobacterium Nostoc sp. GSV 224” (J Nat Prod, 2004)

System: KB
Experiment: Cytotoxicity against human KB cells
Assay type: functional, cell-based

| SMILES | IC50 [nM] |
| --- | --- |
| COc1ccc(C[C@H]2NC(=O)/C=C/C[C@@H]([C@H](C)[C@@H]3O[C@H]3c3ccccc3)OC(=O)[C@H](CC(C)C)OC(=O)[C@H](C)CNC2=O)cc1Cl [CRYPTOPHYCIN 38] | 54.7 |
| COc1ccc(C[C@H]2NC(=O)/C=C/C[C@@H]([C@H](C)[C@H]3O[C@H]3c3ccccc3)OC(=O)[C@H](CC(C)C)OC(=O)[C@H](C)CNC2=O)cc1Cl [CRYPTOPHYCIN 39] | 72 |
| COc1ccc(C[C@H]2NC(=O)/C=C/C[C@@H]([C@H](C)[C@@H]3O[C@@H]3c3ccccc3)OC(=O)[C@H](CC(C)C)OC(=O)[C@H](C)CNC2=O)cc1Cl [CRYPTOPHYCIN 77] | 654 |
| COc1c(Cl)cc(C[C@H]2NC(=O)/C=C/C[C@@H]([C@H](C)[C@H]3O[C@@H]3c3ccccc3)OC(=O)[C@H](CC(C)C)OC(=O)CCNC2=O)cc1Cl [CRYPTOPHYCIN 326] | 1160 |
| COc1ccc(C[C@H]2NC(=O)/C=C\C[C@@H]([C@H](C)[C@H]3O[C@@H]3c3ccccc3)OC(=O)[C@H](CC(C)C)OC(=O)[C@H](C)CNC2=O)cc1Cl [CRYPTOPHYCIN 327] | 14100 |
